This is an account of results in paper PMC8781869, “Thioester-Containing Benzoate Derivatives with α-Glucosidase Inhibitory Activity from the Deep-Sea-Derived Fungus Talaromyces indigoticus FS688” (Marine Drugs, 2021).

The test system of assay [1] is α-glucosidase from Saccharomyces cerevisiae. The assay is described as follows: α-Glucosidase inhibition assay (pNPG substrate, absorbance at 405 nm). It is filed as biochemical. The following applies: for α-glucosidase inhibitory effect at a single concentration: at a concentration of 100 μM; for IC50: in vitro, PBS pH 7.0, 37 °C, triplicate, read-out: α-Glucosidase inhibitory activity IC50. The method, then:
An […] were used to measure the circular dichroism (ECD) and the UV spectra, respectively. ECD and UV spectra were recorded at the range of 200–400 nm under N2 gas […]. IR spectra were recorded on a Shimadzu IR Affinity-1 spectrophotometer. All the NMR spectra were measured on a 600 MHz Bruker Avance-III HD spectrometer and the tetramethylsilane was used as an internal standard. HR-ESI-MS was measured on a Bruker maXis high-resolution mass spectrometer. A Shimadzu LC-20 AT (equipped with an SPD-M20A PDA detector) was used for the preparative separations. The ACE 5 PFP-C18 column (250 × 10.0 mm, 5 μm, 12 nm) was used for semi-preparative HPLC separation and the CHIRAL-MD (2)-RH column (250 × 10.0 mm, 5 μm) was used for chiral separation (Guangzhou FLM Scientific Instrument Co., Ltd, Guangzhou, China). The commercial silica gel (SiO2; 200–300 mesh; Qingdao Marine Chemical Plant, Qingdao, China) and Sephadex LH-20 gel (GE Healthcare Bio-Sciences ABSE-751, Uppsala, Sweden) were used for column chromatography. All solvents were of analytical grade (Guangzhou Chemical Regents Company, Ltd., Guangzhou, China). The natural sea salt was purchased from Guangdong Yueyan saltern. The α-glucosidase from Saccharomyces cerevisiae and p-nitrophenyl-α-d-glucopyranoside (p-NPG) used in bioassays were purchased from Sigma-Aldrich (St. Louis, MO, USA).
The method used for the α-glucosidase inhibitory activity assay was based on previously reported literature with slight modification. The pre-reaction mixture consisted of 130 μL of PBS (100 mM, pH 7.0), 30 μL of enzyme (1 U/mL) and 0.5 μL of the test compounds at different concentrations. After incubation at 37 °C for 10 min, 40 μL of pNPG was added and the mixture was further incubated at 37 °C for 15 min. Finally, the absorbance was measured at 405 nm on an automatic microplate reader. […] All experiments were carried out in triplicate.

For another assay, the system named is α-glucosidase. On the set-up: method as in PMID 24955555. The following applies: previously reported screening; cited from earlier work.

For `COc1c(C)c(C(=O)SC)c(O)c2c1OC(C(C)(C)O)C2` (stereo not drawn) [Compound 1, Eurothiocin C], in assay [1], the “α-glucosidase inhibitory effect at a single concentration” value is on record as “weak inhibitory effects”.
For the molecule `CSC(=O)c1c(C)cc2c(c1O)CC(C(C)(C)OC1OC(CO)C(O)C(O)C1O)O2` (stereo not drawn) [Compound 2, Eurothiocin D], in assay [1], the 50% inhibitory concentration (IC50) (commonly the point on the concentration scale where inhibition reaches its midpoint) turned out to be 5.4 µM.
`CSC(=O)c1c(C)cc2c(c1O)C[C@H](C(C)(C)O)O2` [Compound 7, eurothiocin A]: the “α-glucosidase inhibitor (qualitative)” value in the assay with α-glucosidase is recorded as “potential α-glucosidase inhibitor”.
Regarding `CSC(=O)c1c(C)cc(O)c(C/C=C(\C)CO)c1O` [Compound 4, Eurothiocin F], the concentration for half-maximal inhibition (IC50) in assay [1] was 33.6 µM.
In the case of `CSC(=O)c1c(C)cc(O)c(CC=C(C)C)c1O` [Compound 3, Eurothiocin E], in assay [1], the “α-glucosidase inhibitory effect at a single concentration” value is on record as “weak inhibitory effects” and the IC50 is more than 100 µM.
For `COc1cc(O)cc(C)c1C(=O)SC` [Compound 6, Eurothiocin H] the same measures were “weak inhibitory effects” and more than 100 µM.
As to `CSC(=O)c1c(C)cc(O)c(CCC(C)(C)O)c1O` [Compound 5, Eurothiocin G], the 50% inhibitory concentration (IC50) in assay [1] came to 72.1 µM.
